The text below walks through data of patent US20250084087A1, “BICYCLIC HETEROCYCLES AS MRGPRX2 ANTAGONISTS” (Incyte Corporation, priority 2023, published 2025).

Molecules are shown by their SMILES. Some results are limits rather than exact numbers.

For experiment [1], the target named is T1, MRGPRX2 (Homo sapiens, UniProt Q96LB1).
T1 sequence (Q96LB1 1-330): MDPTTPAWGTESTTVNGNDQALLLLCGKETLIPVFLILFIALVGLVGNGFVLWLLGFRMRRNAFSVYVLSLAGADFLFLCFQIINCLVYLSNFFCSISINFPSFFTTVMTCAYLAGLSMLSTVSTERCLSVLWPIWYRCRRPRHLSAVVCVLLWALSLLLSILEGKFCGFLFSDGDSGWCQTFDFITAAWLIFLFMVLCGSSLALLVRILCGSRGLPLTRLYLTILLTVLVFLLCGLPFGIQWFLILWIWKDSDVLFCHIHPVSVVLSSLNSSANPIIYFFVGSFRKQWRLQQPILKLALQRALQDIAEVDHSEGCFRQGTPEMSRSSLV
Briefly: MRGPRX2 β-Arrestin recruitment assay (PathHunter). The format is cell-based. Particulars: PathHunter CHO-K1 MRGPRX2 β-Arrestin cell line; agonist Cortistatin 14 0.25 μM. On the set-up: host or cells: CHO-K1 (PathHunter). An excerpt: Example C: MRGPRX2 P-Arrestin Assay
This assay measures compound inhibition of P-Arrestin recruitment, which is part of the G protein-independent pathway that results from the ligand-activated GPCR phosphorylation by specific GPCR kinases. The PathHunter CHO-K1 MRPGRX2 B-Arrestin Cell line stably expressing ProLink tagged MRGPRX2 and Enzyme Acceptor Tagged B-Arrestin was purchased from Eurofins DiscoverX, (Fremont, CA).
The cells were maintained in culture medium from the Europhins DiscoverX Cell Culture Kit-107 which includes FBS, hygromycin B and G418. For the assay, the cells were harvested and were resuspended with Cell Plating Reagent 2 (Eurofins DiscoverX). Cells were added 10000 cells in 25 μL/well to a 384-well black cell culture plate (Greiner VWR, Radnor, PA) which contained 125 nL/well of compound at a selected serially diluted concentration range or DMSO. The plate was incubated at 37° C. with 5% CO2 for 1 h. 2 μL/well of agonist Cortistatin 14 was diluted in Protein Dilution Buffer, (Eurofins DiscoverX) for a final concentration of 0.25 μM, was added and the plate was incubated at 37° C. with 5% CO2 for 90 min. 14 μL/well of Detection Reagent Mix (PathHunter Detection Kit, Eurofins DiscoverX) was added to the plates and further incubated for 1 h in the dark. Plates were read on the PHERAstar microplate reader (BMG Labtech Cary, NC) measuring luminescence 0.1 to 1 second per well. Data was normalized using DMSO only wells and wells with high concentration of reference antagonist as controls. Compound IC50 curves were globally fitted with 3- or 4-parameter Hill equation in a Genedata Screener (Genedata Basel, Switzerland).
A general note: Arrestin recruitment assays detect the binding of arrestin to an activated receptor.

Experiment [2] has as its target T1, MRGPRX2. The experiment is described as follows: MRGPRX2 IP1 HTRF assay. The format is cell-based. Particulars: CHO-K1 cells stably expressing human MRGPRX2; IP1 accumulation; agonist Cortistatin 14 1 μM. Details: host or cells: CHO-K1. An excerpt:
Example B: MRGPRX2 IP1 HTRF Assay
This assay measures compound inhibition of myo-Inositol 1 phosphate (IP1) accumulation in CHO-K1 cells. Chinese hamster ovary (CHO-K1) cells stably expressing human MRGPRX2 were purchased from GenScript (Piscataway, NJ).
For the HTRF IP1 determination, an IP-One GqKit (Perkin Elmer Cisbio, Waltham, MA), which includes all reagents and buffers in this protocol, was used. The cells were maintained in culture medium (Ham's F-12K) containing 10% (v/v) FBS, and 200 μg/mL Zeocin. For the assay, the cells were harvested and resuspended in culture medium with 2% FBS and without Zeocin, then were passed through a 40 μm filter. Cells were added at 20000 cells in a 5 μL/well to a 384-well white small volume cell culture plate (Greiner VWR, Radnor, PA) which contained 50 nL/well of test compound serially diluted at a selected concentration range in DMSO. 5 μL/well of prepared 2× Stimulation Buffer2 was then added to plates and was incubated at 37° C. with 5% CO2 for 1 h. 5 μL/well of agonist Cortistatin 14 (Bio-TechneR&D Systems, Minneapolis, MN) in 1× Stimulation Buffer2, for a 1 μM final concentration, was then added to plates and incubated at 37° C. with 5% CO2 for 1 h. 6 μL/well of 1:20 diluted Detection Reagent Mix (d2 and Cryptate) was added to the plates and incubated for 1 h in the dark. Plates were read on the PHERAstar microplate reader (BMG Labtech Cary, NC) to determine the HTRF ratio of the acceptor and donor emission signals. The IP1 concentrations were calculated from a standard curve following the IP-One GQ kit instructions. Wells with DMSO only and wells with high concentration of reference antagonist were used as controls for normalization. Compound IC50 curves were globally fitted with 3- or 4-parameter Hill equation in a Genedata Screener (Genedata Basel, Switzerland).

In experiment [1], `OC1CCC(CNc2cc(C(F)(F)F)nc3cc(Br)nn23)(c2ccncc2)C1` (racemic) [Example 86, 3-(((2-Bromo-5-(trifluoromethyl)pyrazolo[1,5-a]pyrimidin-7-yl)amino)methyl)-3-(pyridin-4-yl)cyclopentan-1-ol] displayed an IC50 of 0.1 to 100 nM. Still for that read-out and setting: under `OCC1CC1(CNc1cc(C(F)(F)F)nc2cc(Br)nn12)c1ccccn1` (single isomer, unassigned) [Example 88, (2-(((2-Bromo-5-(trifluoromethyl)pyrazolo[1,5-a]pyrimidin-7-yl)amino)methyl)-2-(pyridin-2-yl)cyclopropyl)methanol] stands more than 1000 nM; under `OCC1CC1(CNc1cc(C(F)(F)F)nc2cc(Br)nn12)c1ccccc1` (single isomer, unassigned) [Example 89, (2-(((2-Bromo-5-(trifluoromethyl)pyrazolo[1,5-a]pyrimidin-7-yl)amino)methyl)-2-phenylcyclopropyl)methanol], 100 to 1000 nM.

In experiment [2], `NC(=O)N1CCC(CNc2cc(Cl)nc3nc(C(F)(F)F)cn23)(c2ccccc2)CC1` [Example 1, 4-(((7-Chloro-2-(trifluoromethyl)imidazo[1,2-a]pyrimidin-5-yl)amino)methyl)-4-phenylpiperidine-1-carboxamide] registered an IC50 of 100 to 1000 nM. For `NC(=O)N1CCC(CNc2nccc3nc(C(F)(F)F)cn23)(c2ccccc2)CC1` [Example 2, 4-Phenyl-4-(((2-(trifluoromethyl)imidazo[1,2-c]pyrimidin-5-yl)amino)methyl)piperidine-1-carboxamide], the IC50 in experiment [2] was in the range of 100 to 1000 nM. Consider `CNC(=O)N1CC(CNc2cc(Cl)cc3nc(C(F)(F)F)cn23)(c2ccc(F)cn2)C1` [Example 25, 3-(((7-Chloro-2-(trifluoromethyl)imidazo[1,2-a]pyridin-5-yl)amino)methyl)-3-(5-fluoropyridin-2-yl)-N-methylazetidine-1-carboxamide], for which the IC50 in experiment [2] and in experiment [1] was 0.1 to 100 nM in each case.

Take `CNC(=O)N1CC(CNc2cc(C(F)(F)F)nc3cc(C(F)(F)F)nn23)(n2cc(F)cn2)C1` [Example 41, 3-(((2,5-Bis(trifluoromethyl)pyrazolo[1,5-a]pyrimidin-7-yl)amino)methyl)-3-(4-fluoro-1H-pyrazol-1-yl)-N-methylazetidine-1-carboxamide]: the IC50 in experiment [2] and in experiment [1] was 0.1 to 100 nM throughout. For the molecule `Nc1nc(N2CCC(CNc3cc(C(F)F)nc4cc(C(F)(F)F)nn34)(c3ccccc3)CC2)n[nH]1` [Example 42, N-((1-(5-Amino-1H-1,2,4-triazol-3-yl)-4-phenylpiperidin-4-yl)methyl)-5-(difluoromethyl)-2-(trifluoromethyl)pyrazolo[1,5-a]pyrimidin-7-amine], the IC50 in experiment [2] and in experiment [1] was 0.1 to 100 nM in each case.

Regarding `O=c1cc(N2CC(CNc3cc(C(F)(F)F)nc4cc(C(F)(F)F)nn34)(c3ccc(F)cc3)C2)ccn1C1CC1` [Example 51, 4-(3-(((2,5-Bis(trifluoromethyl)pyrazolo[1,5-a]pyrimidin-7-yl)amino)methyl)-3-(4-fluorophenyl)azetidin-1-yl)-1-cyclopropylpyridin-2(1H)-one], in experiment [1], the IC50 was in the range of 0.1 to 100 nM. With `N#CC12CC(NC(=O)N3CC(CNc4cc(C(F)(F)F)nc5cc(C(F)(F)F)nn45)(c4ccc(F)cn4)C3)(C1)C2` [Example 64, 3-(((2,5-Bis(trifluoromethyl)pyrazolo[1,5-a]pyrimidin-7-yl)amino)methyl)-N-(3-cyanobicyclo[1.1.1]pentan-1-yl)-3-(5-fluoropyridin-2-yl)azetidine-1-carboxamide], in experiment [1], the IC50 is 0.1 to 100 nM. On the same count and under the same terms, the same measure for `[2H]C([2H])([2H])c1cc(NCC2(c3ccc(F)cc3)CN(C(N)=O)C2)n2nc(C(F)(F)F)cc2n1` [Example 70, 3-(4-Fluorophenyl)-3-(((5-(methyl-d3)-2-(trifluoromethyl)pyrazolo[1,5-a]pyrimidin-7-yl)amino)methyl)azetidine-1-carboxamide]: 0.1 to 100 nM; for `CCc1cc(NCC2(c3ccc(F)cc3)CCC(N)(C#N)CC2)n2nc(C(F)(F)F)cc2n1` (centres unmarked) [Example 72, 1-Amino-4-(((5-ethyl-2-(trifluoromethyl)pyrazolo[1,5-a]pyrimidin-7-yl)amino)methyl)-4-(4-fluorophenyl)cyclohexane-1-carbonitrile]: 0.1 to 100 nM; for `CO[C@H]1C[C@](CNc2cc(C(F)(F)F)nc3cc(C(F)(F)F)nn23)(c2ccccc2)C1` [Example 75, N-(((1s,3s)-3-Methoxy-1-phenylcyclobutyl)methyl)-2,5-bis(trifluoromethyl)pyrazolo[1,5-a]pyrimidin-7-amine]: 0.1 to 100 nM. Regarding `NC(=O)C1(N)CC(CNc2cc(C(F)(F)F)nc3cc(C(F)(F)F)nn23)(c2ccc(F)cc2)C1` (centres unmarked) [Example 76, 1-Amino-3-(((2,5-bis(trifluoromethyl)pyrazolo[1,5-a]pyrimidin-7-yl)amino)methyl)-3-(4-fluorophenyl)cyclobutane-1-carboxamide], in experiment [1], the IC50 was in the range of 0.1 to 100 nM. With `NC(=O)N1CC(CNc2cc(Cl)cc3nc(C(F)(F)F)nn23)(c2ccccc2)C1` [Example 79, 3-(((7-Chloro-2-(trifluoromethyl)-[1,2,4]triazolo[1,5-a]pyridin-5-yl)amino)methyl)-3-phenylazetidine-1-carboxamide], in experiment [1], the IC50 is 0.1 to 100 nM. Same read-out and setting: the same measure for `OC1CC(CNc2cc(C(F)(F)F)nc3nc(C(F)(F)F)cn23)(c2ccc(F)cc2)C1` (centres unmarked) [Example 80, 3-(((2,7-Bis(trifluoromethyl)imidazo[1,2-a]pyrimidin-5-yl)amino)methyl)-3-(4-fluorophenyl)cyclobutan-1-ol]: 0.1 to 100 nM. Consider `CNC1CCC(CNc2cc(C(F)(F)F)nc3cc(Br)nn23)(c2cccnc2)C1` (centres unmarked) [Example 87, 2-Bromo-N-((3-(methylamino)-1-(pyridin-3-yl)cyclopentyl)methyl)-5-(trifluoromethyl)pyrazolo[1,5-a]pyrimidin-7-amine], for which, in experiment [1], the IC50 is 0.1 to 100 nM. Turning to `Cc1ccc(C2(CNc3cc(C(F)(F)F)nc4cc(C(F)(F)F)nn34)CN(S(N)(=O)=O)C2)cn1` [Example 97, 3-(((2,5-Bis(trifluoromethyl)pyrazolo[1,5-a]pyrimidin-7-yl)amino)methyl)-3-(6-methylpyridin-3-yl)azetidine-1-sulfonamide], the IC50 in experiment [1] was 100 to 1000 nM. As for `[2H]C([2H])([2H])NC(=O)N1CC(CNc2cc(C3CC3)nc3cc(C(F)(F)F)nn23)(c2ccc(C(=O)N(C)C)cc2)C1` [Example 107, 3-(((5-Cyclopropyl-2-(trifluoromethyl)pyrazolo[1,5-a]pyrimidin-7-yl)amino)methyl)-3-(4-(dimethylcarbamoyl)phenyl)-N-(methyl-d3)azetidine-1-carboxamide], the IC50 in experiment [1] is more than 1000 nM. For the molecule `[2H]C([2H])([2H])NC(=O)N1CC(CNc2cc(C3CCC3)nc3cc(C(F)(F)F)nn23)(c2ccc(F)cc2)C1` [Example 108, 3-(((5-Cyclobutyl-2-(trifluoromethyl)pyrazolo[1,5-a]pyrimidin-7-yl)amino)methyl)-3-(4-fluorophenyl)-N-(methyl-d3)azetidine-1-carboxamide], the IC50 in experiment [1] fell in the range of 100 to 1000 nM.

Broadly, the IC50 is the concentration that inhibits the measured activity by half. Lower therefore signals higher potency.
